Source: PubChem BioAssay AID1745844 (Carcinogenic Potency Database (CPDB), 2022)

System: rodent lifetime carcinogenesis bioassay, tumor incidence TD50
Assay: carcinogenic potency in animals, long-term in vivo studies, CPDB compilation (AID 1745844)
Conditions: mouse, strain B6C3F1, males, inhaled

C=CC=C
TD50 (site: all sites, lesion: malignant lymphoma, mixed type + malignant lymphoma, lymphocytic type + malignant lymphoma, dosed 26 weeks, study length 104 weeks): 31.3 mg/kg/day | TD50 (site: all sites, lesion: malignant lymphoma, mixed type + malignant lymphoma, lymphocytic type + malignant lymphoma, dosed 40 weeks, study length 104 weeks): 108 mg/kg/day | TD50 (site: all sites, lesion: malignant lymphoma, mixed type + malignant lymphoma, lymphocytic type + malignant lymphoma, dosed 52 weeks, study length 104 weeks): 46.4 mg/kg/day | TD50 (site: all sites, lesion: malignant lymphoma, mixed type + malignant lymphoma, dosed 13 weeks, study length 104 weeks): 78.1 mg/kg/day | TD50 (site: all sites, lesion: malignant lymphoma, mixed type + malignant lymphoma, dosed 26 weeks, study length 104 weeks): 111 mg/kg/day | TD50 (site: all sites, lesion: malignant lymphoma, mixed type + malignant lymphoma, dosed 40 weeks, study length 104 weeks): 487 mg/kg/day | TD50 (site: all sites, lesion: malignant lymphoma, mixed type + malignant lymphoma, dosed 52 weeks, study length 104 weeks): 76.2 mg/kg/day | TD50 (site: any site (literature study), lesion: several types, types named in the paper, dosed 13 weeks, study length 104 weeks): 6.92 mg/kg/day | TD50 (site: any site (literature study), lesion: several types, types named in the paper, dosed 26 weeks, study length 104 weeks): 12.5 mg/kg/day | TD50 (site: any site (literature study), lesion: several types, types named in the paper, dosed 40 weeks, study length 104 weeks): 10.8 mg/kg/day | TD50 (site: any site (literature study), lesion: several types, types named in the paper, dosed 52 weeks, study length 104 weeks): 5.84 mg/kg/day | TD50 (site: any site (literature study), lesion: several types, types named in the paper, dosed 60 weeks, study length 60 weeks): 28.8 mg/kg/day | TD50 (site: any site (literature study), lesion: several types, types named in the paper, dosed 82 weeks, study length 104 weeks): 10.5 mg/kg/day | TD50 (site: brain, lesion: olfactory lobe, glioma malignant, dosed 13 weeks, study length 104 weeks): 230 mg/kg/day | TD50 (site: brain, lesion: olfactory lobe, glioma malignant, dosed 26 weeks, study length 104 weeks): 403 mg/kg/day | TD50 (site: brain, lesion: olfactory lobe, neuroblastoma malignant, dosed 13 weeks, study length 104 weeks): 394 mg/kg/day | TD50 (site: forestomach, lesion: papilloma, NOS + squamous-cell carcinoma + squamous-cell papilloma, dosed 60 weeks, study length 60 weeks): 120 mg/kg/day | TD50 (site: forestomach, lesion: papilloma, NOS + squamous-cell papilloma, dosed 60 weeks, study length 60 weeks): 140 mg/kg/day | TD50 (site: forestomach, lesion: squamous-cell carcinoma + squamous-cell papilloma, dosed 13 weeks, study length 104 weeks): 44.8 mg/kg/day | TD50 (site: forestomach, lesion: squamous-cell carcinoma + squamous-cell papilloma, dosed 26 weeks, study length 104 weeks): 91.4 mg/kg/day | TD50 (site: forestomach, lesion: squamous-cell carcinoma + squamous-cell papilloma, dosed 40 weeks, study length 104 weeks): 171 mg/kg/day | TD50 (site: forestomach, lesion: squamous-cell carcinoma + squamous-cell papilloma, dosed 52 weeks, study length 104 weeks): 42.8 mg/kg/day | TD50 (site: forestomach, lesion: squamous-cell carcinoma + squamous-cell papilloma, dosed 60 weeks, study length 60 weeks): 557 mg/kg/day | TD50 (site: forestomach, lesion: squamous-cell carcinoma + squamous-cell papilloma, dosed 82 weeks, study length 104 weeks): 197 mg/kg/day | TD50 (site: forestomach, lesion: squamous-cell carcinoma, dosed 13 weeks, study length 104 weeks): 43.4 mg/kg/day | TD50 (site: forestomach, lesion: squamous-cell carcinoma, dosed 26 weeks, study length 104 weeks): 136 mg/kg/day | TD50 (site: forestomach, lesion: squamous-cell carcinoma, dosed 52 weeks, study length 104 weeks): 154 mg/kg/day | TD50 (site: forestomach, lesion: squamous-cell papilloma, dosed 13 weeks, study length 104 weeks): 117 mg/kg/day | TD50 (site: forestomach, lesion: squamous-cell papilloma, dosed 26 weeks, study length 104 weeks): 284 mg/kg/day | TD50 (site: forestomach, lesion: squamous-cell papilloma, dosed 40 weeks, study length 104 weeks): 171 mg/kg/day | TD50 (site: forestomach, lesion: squamous-cell papilloma, dosed 52 weeks, study length 104 weeks): 77.7 mg/kg/day | TD50 (site: forestomach, lesion: squamous-cell papilloma, dosed 82 weeks, study length 104 weeks): 230 mg/kg/day | TD50 (site: heart + peritoneal cavity, lesion: hemangiosarcoma, dosed 60 weeks, study length 60 weeks): 96.7 mg/kg/day | TD50 (site: heart, lesion: hemangiosarcoma, dosed 13 weeks, study length 104 weeks): 32.6 mg/kg/day | TD50 (site: heart, lesion: hemangiosarcoma, dosed 26 weeks, study length 104 weeks): 18.5 mg/kg/day | TD50 (site: heart, lesion: hemangiosarcoma, dosed 40 weeks, study length 104 weeks): 21.9 mg/kg/day | TD50 (site: heart, lesion: hemangiosarcoma, dosed 52 weeks, study length 104 weeks): 13.9 mg/kg/day | TD50 (site: heart, lesion: hemangiosarcoma, dosed 60 weeks, study length 60 weeks): 96.7 mg/kg/day | TD50 (site: heart, lesion: hemangiosarcoma, dosed 82 weeks, study length 104 weeks): 64.8 mg/kg/day | TD50 (site: jejunum, lesion: carcinoma, dosed 82 weeks, study length 104 weeks): 310 mg/kg/day | TD50 (site: kidney, lesion: adenoma + tubule adenoma, dosed 52 weeks, study length 104 weeks): 190 mg/kg/day | TD50 (site: kidney, lesion: tubule adenoma, dosed 13 weeks, study length 104 weeks): 201 mg/kg/day | TD50 (site: kidney, lesion: tubule adenoma, dosed 26 weeks, study length 104 weeks): 961 mg/kg/day | TD50 (site: kidney, lesion: tubule adenoma, dosed 40 weeks, study length 104 weeks): 161 mg/kg/day | TD50 (site: kidney, lesion: tubule adenoma, dosed 82 weeks, study length 104 weeks): 268 mg/kg/day | TD50 (site: liver, lesion: hepatoblastoma + hepatocellular carcinoma, dosed 13 weeks, study length 104 weeks): 23.4 mg/kg/day | TD50 (site: liver, lesion: hepatoblastoma + hepatocellular carcinoma, dosed 26 weeks, study length 104 weeks): 60 mg/kg/day | TD50 (site: liver, lesion: hepatoblastoma + hepatocellular carcinoma, dosed 52 weeks, study length 104 weeks): 41.4 mg/kg/day | TD50 (site: liver, lesion: hepatocellular adenoma + hepatoblastoma + hepatocellular carcinoma, dosed 13 weeks, study length 104 weeks): 15.1 mg/kg/day | TD50 (site: liver, lesion: hepatocellular adenoma + hepatoblastoma + hepatocellular carcinoma, dosed 26 weeks, study length 104 weeks): 23.8 mg/kg/day | TD50 (site: liver, lesion: hepatocellular adenoma + hepatoblastoma + hepatocellular carcinoma, dosed 52 weeks, study length 104 weeks): 13.8 mg/kg/day | TD50 (site: liver, lesion: hepatocellular adenoma + hepatocellular carcinoma + neoplastic nodule, dosed 13 weeks, study length 104 weeks): 15.1 mg/kg/day | TD50 (site: liver, lesion: hepatocellular adenoma + hepatocellular carcinoma + neoplastic nodule, dosed 26 weeks, study length 104 weeks): 23.8 mg/kg/day | TD50 (site: liver, lesion: hepatocellular adenoma + hepatocellular carcinoma + neoplastic nodule, dosed 40 weeks, study length 104 weeks): 16.8 mg/kg/day | TD50 (site: liver, lesion: hepatocellular adenoma + hepatocellular carcinoma + neoplastic nodule, dosed 52 weeks, study length 104 weeks): 14.6 mg/kg/day
